Structures can show the parent of a compound that is named as a salt.
Assay: in vitro
Conditions: rat, gh3-tre-luc cells, AC50 (uM) modified / 1000
For `COC(=O)c1cc(Cl)ccc1[N+](=O)[O-]` [Methyl 5-chloro-2-nitrobenzoate], the CC50 at 24 h was greater than 90 µM.
Work on `CCCc1ccc(N)cc1` [4-Propylaniline] yielded a CC50 at 24 h greater than 90 µM.
`CCCCCCCCC(=O)OCC` [Ethyl nonanoate] gave a CC50 at 24 h greater than 90 µM.
Compound `c1ccc(CNCCNCc2ccccc2)cc1` [N,N'-Dibenzylethane-1,2-diamine dihydrochloride] has a CC50 at 24 h greater than 50 µM.
`N=C(N)N1CCc2ccccc2C1` [Debrisoquin sulfate] showed a CC50 at 24 h greater than 50 µM.
`COC(=O)c1cccc(Cl)c1` [Methyl 3-chlorobenzoate] showed a CC50 at 24 h greater than 90 µM.
`C/C=C(/CC[C@@H](C)[C@H]1CC[C@H]2C3=CC[C@H]4[C@H](C)[C@@H](O)CC[C@]4(C)[C@H]3CC[C@]12C)C(C)C` [Sitosterol alpha1] showed a CC50 at 24 h greater than 50 µM.
With `C=CC(N)CCC(=O)O` (centres unmarked) [Vigabatrin] the CC50 at 24 h was greater than 50 µM.
`O=Cc1ccc(Cl)c(Cl)c1` [3,4-Dichlorobenzaldehyde] gave a CC50 at 24 h greater than 90 µM.
In the case of `O=C(c1ccc(OCCN2CCCCC2)cc1)c1c(-c2ccc(O)cc2)sc2cc(O)ccc12` [Raloxifene], the CC50 at 24 h is reported as 3.84 µM.
For `CC(Oc1cc(Cl)ccc1Cl)C(=O)O` (stereo not drawn) [alpha-(2,5-Dichlorophenoxy)propionic acid], the CC50 at 24 h was greater than 90 µM.
Compound `CCCCOCC(C)OCC(C)O` (centres unmarked) [1-(2-Butoxy-1-methylethoxy)propan-2-ol] has a CC50 at 24 h greater than 90 µM.
In the case of `CS(=O)(=O)NC(=O)CCC/C=C\C[C@H]1C(=O)C[C@@H](O)[C@@H]1/C=C/[C@@H](O)COc1ccccc1` [Sulprostone], the CC50 at 24 h is reported as greater than 50 µM.
Work on `N=C(N/N=C/c1ccc(Cl)cc1)N/N=C/c1ccc(Cl)cc1` [Robenidine] yielded a CC50 at 24 h of 46.1 µM.
Work on `C=CCc1ccc(OC)cc1` [Estragole] yielded a CC50 at 24 h greater than 90 µM.
For `C/C=C(/C(=C/C)c1ccc(O)cc1)c1ccc(O)cc1` [Dienestrol], the CC50 at 24 h was 16.1 µM.
With `CCOC(=O)OC(C)OC1=C(C(=O)Nc2ccccn2)N(C)S(=O)(=O)c2ccccc21` (centres unmarked) [Ampiroxicam] the CC50 at 24 h was greater than 50 µM.
In the case of `CCCCCCCCCCCCCN1CC(C)OC(C)C1` (centres unmarked) [Tridemorph], the CC50 at 24 h is reported as greater than 90 µM.
In the case of `CC(CC=O)CCCC(C)(C)O` (centres unmarked) [Hydroxycitronella], the CC50 at 24 h is reported as greater than 90 µM.
For `O=C(O)CCN(C1(C(=O)NO)CCCC1)S(=O)(=O)c1ccc(Oc2ccc(F)cc2)cc1` [CP-471358], the CC50 at 24 h was greater than 90 µM.
Work on `OC[C@H]1O[C@@H](n2cnc3c2NC=NC[C@H]3O)C[C@@H]1O` [Pentostatin] yielded a CC50 at 24 h greater than 50 µM.
`CC(Cc1cccc(C(F)(F)F)c1)NCCOC(=O)c1ccccc1` (centres unmarked) [Benfluorex hydrochloride] showed a CC50 at 24 h of 27.3 µM.
Compound `CCN(CC)c1ccc(N=Nc2ccc(S(=O)(=O)N(C)C)cc2)c(S(=O)(=O)NCC[n+]2ccccc2)c1` [1-[2-({[5-Diethylamino)-2-{[4-(dimethylsulfamoyl)phenyl]diazenyl}phenyl]sulfonyl}amino)ethyl]pyridinium chloride] has a CC50 at 24 h greater than 50 µM.
Compound `C[C@]12CC[C@@H]3c4ccc(O)cc4CC[C@H]3[C@@H]1CC[C@@H]2OP(=O)(O)O` [Estradiol phosphate] has a CC50 at 24 h greater than 50 µM.
With `C1=COCCC1` [3,4-Dihydro-2H-pyran] the CC50 at 24 h was greater than 90 µM.
With `Cc1ccc(-c2c(Cl)nc(C#N)n2S(=O)(=O)N(C)C)cc1` [Cyazofamid] the CC50 at 24 h was 40.3 µM.
`NC(=O)NS(=O)(=O)c1ccc(N)cc1` [Sulfacarbamide] gave a CC50 at 24 h greater than 50 µM.
In the case of `CC(C)n1c(/C=C/[C@H](O)C[C@H](O)CC(=O)O)c(-c2ccc(F)cc2)c2ccccc21` (racemic) [Fluvastatin], the CC50 at 24 h is reported as greater than 90 µM.
`Nc1nc[nH]n1` [Amitrole] gave a CC50 at 24 h greater than 90 µM.
Work on `CCCCC(C#N)(Cn1cncn1)c1ccc(Cl)cc1` (centres unmarked) [Myclobutanil] yielded a CC50 at 24 h greater than 90 µM.
`Cc1ccc(C)cc1` [p-Xylene] showed a CC50 at 24 h greater than 90 µM.
Compound `FC(F)(F)c1ccc(Cl)cc1Cl` [2,4-Dichlorobenzotrifluoride] has a CC50 at 24 h greater than 90 µM.
Compound `CCCCN(CCCC)CCC(O)c1cc2c(Cl)cc(Cl)cc2c2cc(C(F)(F)F)ccc12` (centres unmarked) [Halofantrine hydrochloride] has a CC50 at 24 h greater than 20 µM.
`CC(=O)c1c(C)c([N+](=O)[O-])c(C(C)(C)C)c([N+](=O)[O-])c1C` [Musk ketone] showed a CC50 at 24 h of 80.9 µM.

Same assay, conditions: rat, gh3-tre-luc cells, AC50 (uM) modified / 1000, Tox21_110001=Tox21_201255; viability, 1 nM T3 present, 24 h
`CCN(CC)N=O` [N-Nitrosodiethylamine] gave a CC50 at 24 h greater than 90 µM.

Reference: paper PMC6792352, “Limited Chemical Structural Diversity Found to Modulate Thyroid Hormone Receptor in the Tox21 Chemical Library” (Environmental Health Perspectives, 2019)
